# Assay results from patent US20020137929A1, “1 - (3-heterocyclylphenyl) isothiourea, -isourea, -guanidine and -amidine herbicidal agents” (Intellectual Property Department, BASF Aktiengesellschaft, priority 1998, published 2002).
# Assays:
# AMBEL (Ragweed, Common) [1] = assay: Postemergence herbicidal evaluation; format: in vivo, Ambrosia artemisifolia
# Summary of the method: (§1)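 Herbicidal effect was judged by eye on a 0–9 scale covering stand, vigor, deformity, size and chlorosis, compared with controls, four to five weeks after seedlings about two weeks old were sprayed (40 psi, ~0.0156–0.500 kg/ha).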
# CASOB (Sicklepod) [2] = assay: Preemergence herbicidal evaluation; format: in vivo, Cassia obtusifolia; settings: rated 4-5 weeks after treatment
# Summary of the method: (§2)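 Sown cups got a single aqueous acetone spray of test compound (roughly 0.0156–0.500 kg/ha) before seedlings emerged. Evaluation, 4–5 weeks on, used a 0–9 visual scale covering plant stand, vigor, size, malformation, chlorosis and general appearance compared with controls.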
# [3] = tested on: TRZAWR (Wheat, Winter, cv Riband); assay: Postemergence herbicidal evaluation; format: in vivo, Triticum aestivum
# Summary of the method: as §1
# [4] = tested on: IPOHE (Morningglory, Ivyleaf); assay: Postemergence herbicidal evaluation; format: in vivo, Ipomoea hederacea
# Summary of the method: as §1
# ECHCG (Barnyardgrass) = assay: Postemergence herbicidal evaluation; format: in vivo, Echinochloa crus-galli
# Summary of the method: as §1
# [5] = tested on: IPOHE (Morningglory, Ivyleaf); assay: Preemergence herbicidal evaluation; format: in vivo, Ipomoea hederacea; settings: rated 4-5 weeks after treatment
# Summary of the method: as §2
# [6] = tested on: CHEAL (Lambsquarters, Common); assay: Postemergence herbicidal evaluation; format: in vivo, Chenopodium album
# Summary of the method: as §1
# ORYSAT (Rice, Tebonnet) = assay: Preemergence herbicidal evaluation; format: in vivo, Oryza sativa, (L.) Tebonnet; settings: rated 4-5 weeks after treatment
# Summary of the method: as §2
# [7] = tested on: GLXMAW (Soybean, Williams); assay: Postemergence herbicidal evaluation; format: in vivo, Glycine max, (L.) Merr. cv Williams
# Summary of the method: as §1
# [8] = tested on: CHEAL (Lambsquarters, Common); assay: Preemergence herbicidal evaluation; format: in vivo, Chenopodium album; settings: rated 4-5 weeks after treatment
# Summary of the method: as §2
# ABUTH (Velvetleaf) = assay: Preemergence herbicidal evaluation; format: in vivo, Abutilon theophrasti; settings: rated 4-5 weeks after treatment
# Summary of the method: as §2
# CASOB (Sicklepod) [9] = assay: Postemergence herbicidal evaluation; format: in vivo, Cassia obtusifolia
# Summary of the method: as §1
# [10] = tested on: GLXMAW (Soybean, Williams); assay: Preemergence herbicidal evaluation; format: in vivo, Glycine max, (L.) Merr. cv Williams; settings: rated 4-5 weeks after treatment
# Summary of the method: as §2
# AMBEL (Ragweed, Common) [11] = assay: Preemergence herbicidal evaluation; format: in vivo, Ambrosia artemisifolia; settings: rated 4-5 weeks after treatment
# Summary of the method: as §2
# MOOVA (Monochoria) = assay: Preemergence weed control under flooded paddy conditions; format: in vivo, Monochoria vaginalis; settings: rated 3-4 weeks after treatment
# Summary of the method: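 First, seeds or propagules go into the top 0.5 cm of silt loam; next, water is held 1.5 to 3 cm over the soil; then compound (50/50 acetone/water) is pipetted into it at about 0.0313 to 0.500 kg/ha; finally plants are rated visually 0-9 after three to four weeks.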
smiles,measurement,setting,value
"C=CCN1C(=O)C(CC(=O)Nc2ccccc2)SC1=Nc1cc(-n2c(=O)cc(C(F)(F)F)n(C)c2=O)c(F)cc1Cl (centres unmarked) [Compound 44, 3-Allyl-2-{{2-chloro-5-[3,6-dihydro-3-methyl-2,6-dioxo-4-(trifluoromethyl)-1(2H)-pyrimidinyl]-4-fluorophenyl}imino}-4-oxo-5-thiazolidineacetanilide]",Postemergence herbicidal rating AMBEL,"AMBEL (Ragweed, Common) [1]; Rate 0.0156 kg/ha",4.0
same,Postemergence herbicidal rating AMBEL,"AMBEL (Ragweed, Common) [1]; Rate 0.0313 kg/ha",4.0
same,Postemergence herbicidal rating AMBEL,"AMBEL (Ragweed, Common) [1]; Rate 0.0625 kg/ha",7.0
same,Postemergence herbicidal rating AMBEL,"AMBEL (Ragweed, Common) [1]; Rate 0.1250 kg/ha",9.0
same,Preemergence herbicidal rating CASOB,CASOB (Sicklepod) [2]; rate 0.0156 kg/ha,0.0
same,Preemergence herbicidal rating CASOB,CASOB (Sicklepod) [2]; rate 0.0313 kg/ha,0.0
same,Preemergence herbicidal rating CASOB,CASOB (Sicklepod) [2]; rate 0.0625 kg/ha,0.0
same,Preemergence herbicidal rating CASOB,CASOB (Sicklepod) [2]; rate 0.1250 kg/ha,1.0
same,Preemergence herbicidal rating CASOB,CASOB (Sicklepod) [2]; rate 0.2500 kg/ha,0.0
same,Preemergence herbicidal rating CASOB,CASOB (Sicklepod) [2]; rate 0.5000 kg/ha,1.0
same,Postemergence herbicidal rating TRZAWR,[3]; Rate 0.0156 kg/ha,3.0
same,Postemergence herbicidal rating TRZAWR,[3]; Rate 0.0313 kg/ha,4.0
same,Postemergence herbicidal rating TRZAWR,[3]; Rate 0.0625 kg/ha,4.0
same,Postemergence herbicidal rating TRZAWR,[3]; Rate 0.1250 kg/ha,4.0
same,Postemergence herbicidal rating IPOHE,[4]; Rate 0.0156 kg/ha,9.0
same,Postemergence herbicidal rating IPOHE,[4]; Rate 0.0313 kg/ha,9.0
same,Postemergence herbicidal rating IPOHE,[4]; Rate 0.0625 kg/ha,9.0
same,Postemergence herbicidal rating IPOHE,[4]; Rate 0.1250 kg/ha,9.0
same,Postemergence herbicidal rating ECHCG,ECHCG (Barnyardgrass); Rate 0.0156 kg/ha,0.0
same,Postemergence herbicidal rating ECHCG,ECHCG (Barnyardgrass); Rate 0.0313 kg/ha,1.0
same,Postemergence herbicidal rating ECHCG,ECHCG (Barnyardgrass); Rate 0.0625 kg/ha,2.0
same,Postemergence herbicidal rating ECHCG,ECHCG (Barnyardgrass); Rate 0.1250 kg/ha,1.0
same,Preemergence herbicidal rating IPOHE,[5]; rate 0.0156 kg/ha,0.0
same,Preemergence herbicidal rating IPOHE,[5]; rate 0.0313 kg/ha,0.0
same,Preemergence herbicidal rating IPOHE,[5]; rate 0.0625 kg/ha,0.0
same,Preemergence herbicidal rating IPOHE,[5]; rate 0.1250 kg/ha,1.0
same,Preemergence herbicidal rating IPOHE,[5]; rate 0.2500 kg/ha,0.0
same,Preemergence herbicidal rating IPOHE,[5]; rate 0.5000 kg/ha,0.0
same,Postemergence herbicidal rating CHEAL,[6]; Rate 0.0156 kg/ha,1.0
same,Postemergence herbicidal rating CHEAL,[6]; Rate 0.0313 kg/ha,4.0
same,Postemergence herbicidal rating CHEAL,[6]; Rate 0.0625 kg/ha,5.0
same,Postemergence herbicidal rating CHEAL,[6]; Rate 0.1250 kg/ha,9.0
same,Preemergence herbicidal rating ORYSAT,"ORYSAT (Rice, Tebonnet); rate 0.0156 kg/ha",0.0
same,Preemergence herbicidal rating ORYSAT,"ORYSAT (Rice, Tebonnet); rate 0.0313 kg/ha",0.0
same,Preemergence herbicidal rating ORYSAT,"ORYSAT (Rice, Tebonnet); rate 0.0625 kg/ha",0.0
same,Preemergence herbicidal rating ORYSAT,"ORYSAT (Rice, Tebonnet); rate 0.1250 kg/ha",0.0
same,Preemergence herbicidal rating ORYSAT,"ORYSAT (Rice, Tebonnet); rate 0.2500 kg/ha",0.0
same,Preemergence herbicidal rating ORYSAT,"ORYSAT (Rice, Tebonnet); rate 0.5000 kg/ha",0.0
same,Postemergence herbicidal rating GLXMAW,[7]; Rate 0.0156 kg/ha,4.5
same,Postemergence herbicidal rating GLXMAW,[7]; Rate 0.0313 kg/ha,5.0
same,Postemergence herbicidal rating GLXMAW,[7]; Rate 0.0625 kg/ha,5.5
same,Postemergence herbicidal rating GLXMAW,[7]; Rate 0.1250 kg/ha,6.0
same,Preemergence herbicidal rating CHEAL,[8]; rate 0.0156 kg/ha,3.0
same,Preemergence herbicidal rating CHEAL,[8]; rate 0.0313 kg/ha,5.0
same,Preemergence herbicidal rating CHEAL,[8]; rate 0.0625 kg/ha,4.0
same,Preemergence herbicidal rating CHEAL,[8]; rate 0.1250 kg/ha,9.0
same,Preemergence herbicidal rating CHEAL,[8]; rate 0.2500 kg/ha,9.0
same,Preemergence herbicidal rating CHEAL,[8]; rate 0.5000 kg/ha,9.0
same,Preemergence herbicidal rating ABUTH,ABUTH (Velvetleaf); rate 0.0156 kg/ha,0.0
same,Preemergence herbicidal rating ABUTH,ABUTH (Velvetleaf); rate 0.0313 kg/ha,0.0
same,Preemergence herbicidal rating ABUTH,ABUTH (Velvetleaf); rate 0.0625 kg/ha,0.0
same,Preemergence herbicidal rating ABUTH,ABUTH (Velvetleaf); rate 0.1250 kg/ha,9.0
same,Preemergence herbicidal rating ABUTH,ABUTH (Velvetleaf); rate 0.2500 kg/ha,9.0
same,Preemergence herbicidal rating ABUTH,ABUTH (Velvetleaf); rate 0.5000 kg/ha,9.0
same,Postemergence herbicidal rating CASOB,CASOB (Sicklepod) [9]; Rate 0.0156 kg/ha,0.0
same,Postemergence herbicidal rating CASOB,CASOB (Sicklepod) [9]; Rate 0.0313 kg/ha,0.0
same,Postemergence herbicidal rating CASOB,CASOB (Sicklepod) [9]; Rate 0.0625 kg/ha,2.0
same,Postemergence herbicidal rating CASOB,CASOB (Sicklepod) [9]; Rate 0.1250 kg/ha,2.0
same,Preemergence herbicidal rating GLXMAW,[10]; rate 0.0156 kg/ha,0.0
same,Preemergence herbicidal rating GLXMAW,[10]; rate 0.0313 kg/ha,0.0
same,Preemergence herbicidal rating GLXMAW,[10]; rate 0.0625 kg/ha,0.0
same,Preemergence herbicidal rating GLXMAW,[10]; rate 0.1250 kg/ha,0.0
same,Preemergence herbicidal rating GLXMAW,[10]; rate 0.2500 kg/ha,0.0
same,Preemergence herbicidal rating GLXMAW,[10]; rate 0.5000 kg/ha,0.0
same,Preemergence herbicidal rating AMBEL,"AMBEL (Ragweed, Common) [11]; rate 0.0156 kg/ha",0.0
same,Preemergence herbicidal rating AMBEL,"AMBEL (Ragweed, Common) [11]; rate 0.0313 kg/ha",0.0
same,Preemergence herbicidal rating AMBEL,"AMBEL (Ragweed, Common) [11]; rate 0.0625 kg/ha",0.0
same,Preemergence herbicidal rating AMBEL,"AMBEL (Ragweed, Common) [11]; rate 0.1250 kg/ha",0.0
same,Preemergence herbicidal rating AMBEL,"AMBEL (Ragweed, Common) [11]; rate 0.2500 kg/ha",2.0
same,Preemergence herbicidal rating AMBEL,"AMBEL (Ragweed, Common) [11]; rate 0.5000 kg/ha",4.0
same,Herbicidal rating MOOVA,MOOVA (Monochoria); 0.0313 kg/ha,4.0
same,Herbicidal rating MOOVA,MOOVA (Monochoria); 0.0625 kg/ha,4.0
same,Herbicidal rating MOOVA,MOOVA (Monochoria); 0.1250 kg/ha,7.0
same,Herbicidal rating MOOVA,MOOVA (Monochoria); 0.2500 kg/ha,9.0
